Results from ChEMBL document CHEMBL3272144, “Application of the Free-Wilson technique to structurally related series of homologues. Quantitative structure-activity relationship studies of narcotic analgetics” (1977).

Species: Mus musculus
Assay: Analgesic activity in mouse by hot-plate method
Type: functional

SMILES	log(1/C)
CCC[C@@]12CCN(C)C(Cc3ccc(O)cc31)[C@@H]2C (stereo in doubt; 94)	1.38
CC[C@@]12CCN(C)C(Cc3ccc(O)cc31)C2 (stereo in doubt; 99)	1.03
CC[C@@H]1C2Cc3ccc(O)cc3[C@@]1(CC)CCN2C (stereo in doubt; 95)	1.31
CN1CC[C@]2(C)c3ccccc3CC1[C@@]2(C)O (mixture of isomers)	0.68
CCC[C@@]12CCN(C)C(Cc3ccccc31)[C@@H]2C (mixture of isomers)	1.42
CC[C@@]12CCN(CCc3ccccc3)C(Cc3ccc(O)cc31)C2 (mixture of isomers)	3.66
C=CC#CCN1CC[C@]2(CC)c3cc(O)ccc3CC1[C@@H]2CC (stereo in doubt; 72)	3.7
CN1CC[C@@]2(C)CC1Cc1ccccc12 (mixture of isomers)	1.33
C[C@@H]1C2Cc3ccc(O)cc3[C@@]1(C)CCN2C (stereo in doubt; 9)	3.22
CC(C)=CCN1CC[C@]2(C)c3cc(O)ccc3CC1[C@@H]2C	1.53
c1ccc2c(c1)CC1C[C@@H]2CCN1 (mixture of isomers)	1.31
C[C@H]1C2Cc3ccc(F)cc3[C@@]1(C)CCN2C (mixture of isomers)	1.08
CC[C@@]12CCN(C)C(Cc3ccc(OC)cc31)[C@@H]2OC(C)=O (mixture of isomers)	1.48
